Measurements as given in PubChem BioAssay (NCI).
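1) Cells in 96-well plates. 2) Compound, 48 h, 5 concentrations. 3) Linear interpolation between surrounding doses. 4) Unreached endpoint = highest concentration. TGI is the concentration that stops growth completely.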

Assays:
Experiment in all cases: DTP human tumour cell line panel, 48 h
SNB-19 CNS = system: SNB-19 CNS
RPMI-8226 leukemia = system: RPMI-8226 leukemia
OVCAR-8 ovarian = system: OVCAR-8 ovarian
NCI-H226 lung = system: NCI-H226 lung
BT-549 breast = system: BT-549 breast
ACHN renal = system: ACHN renal
UO-31 renal = system: UO-31 renal
NCI-H460 lung = system: NCI-H460 lung
MOLT-4 leukemia = system: MOLT-4 leukemia
HOP-92 NSCLC = system: HOP-92 NSCLC
SR leukemia = system: SR leukemia
HS 578T breast = system: HS 578T breast
MDA-MB-231 breast = system: MDA-MB-231 breast
A498 renal = system: A498 renal
OVCAR-3 ovarian = system: OVCAR-3 ovarian
NCI-H522 lung = system: NCI-H522 lung
RXF 393 renal = system: RXF 393 renal
OVCAR-5 ovarian = system: OVCAR-5 ovarian
MALME-3M melanoma = system: MALME-3M melanoma
OVCAR-4 ovarian = system: OVCAR-4 ovarian
U251 CNS = system: U251 CNS
SW-620 colon = system: SW-620 colon
CCRF-CEM leukemia = system: CCRF-CEM leukemia
EKVX NSCLC = system: EKVX NSCLC
K-562 leukemia = system: K-562 leukemia
MDA-N = system: MDA-N
SF-268 CNS = system: SF-268 CNS
UACC-62 melanoma = system: UACC-62 melanoma
NCI/ADR-RES ovarian = system: NCI/ADR-RES ovarian
KM12 colon = system: KM12 colon
T-47D breast = system: T-47D breast
TK-10 renal = system: TK-10 renal
HCT-15 colon = system: HCT-15 colon
COLO 205 colon = system: COLO 205 colon
M14 melanoma = system: M14 melanoma
HCC-2998 colon = system: HCC-2998 colon
HL-60(TB) leukemia = system: HL-60(TB) leukemia
LOX IMVI melanoma = system: LOX IMVI melanoma
HCT-116 colon = system: HCT-116 colon
A549 NSCLC = system: A549 NSCLC
SK-MEL-28 melanoma = system: SK-MEL-28 melanoma
UACC-257 melanoma = system: UACC-257 melanoma
PC-3 prostate = system: PC-3 prostate
SK-MEL-5 melanoma = system: SK-MEL-5 melanoma
SNB-75 CNS = system: SNB-75 CNS
SN12C renal = system: SN12C renal
CAKI-1 renal = system: CAKI-1 renal
SK-MEL-2 melanoma = system: SK-MEL-2 melanoma
IGROV1 ovarian = system: IGROV1 ovarian
786-0 renal = system: 786-0 renal
DU-145 prostate = system: DU-145 prostate
SF-539 CNS = system: SF-539 CNS
SF-295 CNS = system: SF-295 CNS
MDA-MB-435 = system: MDA-MB-435
MCF7 breast = system: MCF7 breast
SK-OV-3 ovarian = system: SK-OV-3 ovarian
HT29 colon = system: HT29 colon
NCI-H23 lung = system: NCI-H23 lung
HOP-62 NSCLC = system: HOP-62 NSCLC

CNN1C(=O)c2c(N)c(C#N)c(-c3ccccc3)c(-c3ccccc3)c2C1=O
TGI (SNB-19 CNS): > 100 µM
TGI (RPMI-8226 leukemia): > 100 µM
TGI (OVCAR-8 ovarian): > 100 µM
TGI (NCI-H226 lung): > 100 µM
TGI (BT-549 breast): > 100 µM
TGI (ACHN renal): > 100 µM
TGI (UO-31 renal): > 100 µM
TGI (NCI-H460 lung): > 100 µM
TGI (MOLT-4 leukemia): > 100 µM
TGI (HOP-92 NSCLC): > 100 µM
TGI (SR leukemia): > 100 µM
TGI (HS 578T breast): > 100 µM
TGI (MDA-MB-231 breast): > 100 µM
TGI (A498 renal): > 100 µM
TGI (OVCAR-3 ovarian): > 100 µM
TGI (NCI-H522 lung): > 100 µM
TGI (RXF 393 renal): > 100 µM
TGI (OVCAR-5 ovarian): > 100 µM
TGI (MALME-3M melanoma): > 100 µM
TGI (OVCAR-4 ovarian): > 100 µM
TGI (U251 CNS): > 100 µM
TGI (SW-620 colon): > 100 µM
TGI (CCRF-CEM leukemia): > 100 µM
TGI (EKVX NSCLC): > 100 µM
TGI (K-562 leukemia): > 100 µM
TGI (MDA-N): > 100 µM
TGI (SF-268 CNS): > 100 µM
TGI (UACC-62 melanoma): > 100 µM
TGI (NCI/ADR-RES ovarian): > 100 µM
TGI (KM12 colon): > 100 µM
TGI (T-47D breast): > 100 µM
TGI (TK-10 renal): > 100 µM
TGI (HCT-15 colon): > 100 µM
TGI (COLO 205 colon): > 100 µM
TGI (M14 melanoma): > 100 µM
TGI (HCC-2998 colon): > 100 µM
TGI (HL-60(TB) leukemia): > 100 µM
TGI (LOX IMVI melanoma): > 100 µM
TGI (HCT-116 colon): > 100 µM
TGI (A549 NSCLC): > 100 µM
TGI (SK-MEL-28 melanoma): > 100 µM
TGI (UACC-257 melanoma): > 100 µM
TGI (PC-3 prostate): > 100 µM
TGI (SK-MEL-5 melanoma): > 100 µM
TGI (SNB-75 CNS): > 100 µM
TGI (SN12C renal): > 100 µM
TGI (CAKI-1 renal): > 100 µM
TGI (SK-MEL-2 melanoma): > 100 µM
TGI (IGROV1 ovarian): > 100 µM
TGI (786-0 renal): > 100 µM
TGI (DU-145 prostate): > 100 µM
TGI (SF-539 CNS): > 100 µM
TGI (SF-295 CNS): > 100 µM
TGI (MDA-MB-435): > 100 µM
TGI (MCF7 breast): > 100 µM

CC1CC(C)CN(S(=O)(=O)c2cc(Cl)c(Oc3ccc([N+](=O)[O-])cc3Cl)c(Cl)c2)C1 (centres undefined)
TGI (SNB-19 CNS): > 100 µM
TGI (RPMI-8226 leukemia): > 100 µM
TGI (OVCAR-8 ovarian): > 100 µM
TGI (NCI-H226 lung): > 100 µM
TGI (BT-549 breast): > 100 µM
TGI (ACHN renal): > 100 µM
TGI (UO-31 renal): > 100 µM
TGI (NCI-H460 lung): > 100 µM
TGI (MOLT-4 leukemia): > 100 µM
TGI (HOP-92 NSCLC): > 100 µM
TGI (SR leukemia): > 100 µM
TGI (HS 578T breast): > 100 µM
TGI (SK-OV-3 ovarian): > 100 µM
TGI (MDA-MB-231 breast): > 100 µM
TGI (A498 renal): > 100 µM
TGI (OVCAR-3 ovarian): > 100 µM
TGI (NCI-H522 lung): > 100 µM
TGI (HT29 colon): > 100 µM
TGI (RXF 393 renal): > 100 µM
TGI (OVCAR-5 ovarian): > 100 µM
TGI (MALME-3M melanoma): > 100 µM
TGI (OVCAR-4 ovarian): > 100 µM
TGI (U251 CNS): > 100 µM
TGI (SW-620 colon): > 100 µM
TGI (EKVX NSCLC): > 100 µM
TGI (K-562 leukemia): > 100 µM
TGI (MDA-N): > 100 µM
TGI (SF-268 CNS): > 100 µM
TGI (UACC-62 melanoma): > 100 µM
TGI (NCI/ADR-RES ovarian): > 100 µM
TGI (KM12 colon): > 100 µM
TGI (T-47D breast): > 100 µM
TGI (TK-10 renal): > 100 µM
TGI (HCT-15 colon): > 100 µM
TGI (COLO 205 colon): > 100 µM
TGI (M14 melanoma): > 100 µM
TGI (HCC-2998 colon): > 100 µM
TGI (HL-60(TB) leukemia): > 100 µM
TGI (LOX IMVI melanoma): > 100 µM
TGI (HCT-116 colon): > 100 µM
TGI (A549 NSCLC): > 100 µM
TGI (SK-MEL-28 melanoma): > 100 µM
TGI (UACC-257 melanoma): > 100 µM
TGI (PC-3 prostate): > 100 µM
TGI (SK-MEL-5 melanoma): > 100 µM
TGI (SNB-75 CNS): > 100 µM
TGI (SN12C renal): > 100 µM
TGI (CAKI-1 renal): > 100 µM
TGI (SK-MEL-2 melanoma): > 100 µM
TGI (NCI-H23 lung): > 100 µM
TGI (IGROV1 ovarian): > 100 µM
TGI (786-0 renal): > 100 µM
TGI (DU-145 prostate): > 100 µM
TGI (HOP-62 NSCLC): > 100 µM
TGI (SF-539 CNS): > 100 µM
TGI (SF-295 CNS): > 100 µM
TGI (MDA-MB-435): > 100 µM
TGI (MCF7 breast): > 100 µM

NC(=O)NC(=O)c1cccc(NC(=O)CI)c1
TGI (SNB-19 CNS): 14.7 µM
TGI (RPMI-8226 leukemia): 0.312 µM
TGI (OVCAR-8 ovarian): 0.188 µM
TGI (NCI-H226 lung): 0.201 µM
TGI (BT-549 breast): 2.44 µM
TGI (ACHN renal): 1.58 µM
TGI (UO-31 renal): 1.44 µM
TGI (NCI-H460 lung): 0.286 µM
TGI (HOP-92 NSCLC): 1.58 µM
TGI (SR leukemia): 0.416 µM
TGI (HS 578T breast): 0.146 µM
TGI (SK-OV-3 ovarian): 1.06 µM
TGI (MDA-MB-231 breast): 0.866 µM
TGI (A498 renal): 0.805 µM
TGI (OVCAR-3 ovarian): < 0.01 µM
TGI (NCI-H522 lung): < 0.01 µM
TGI (HT29 colon): 0.0607 µM
TGI (RXF 393 renal): 2.13 µM
TGI (OVCAR-5 ovarian): 2.12 µM
TGI (MALME-3M melanoma): 0.899 µM
TGI (OVCAR-4 ovarian): 5.08 µM
TGI (U251 CNS): 0.136 µM
TGI (SW-620 colon): 2.03 µM
TGI (CCRF-CEM leukemia): 0.145 µM
TGI (EKVX NSCLC): 10.4 µM
TGI (K-562 leukemia): 1.45 µM
TGI (MDA-N): 0.0253 µM
TGI (SF-268 CNS): 0.0717 µM
TGI (UACC-62 melanoma): 0.692 µM
TGI (NCI/ADR-RES ovarian): 5.32 µM
TGI (KM12 colon): 18.5 µM
TGI (T-47D breast): 4.3 µM
TGI (HCT-15 colon): 2.06 µM
TGI (COLO 205 colon): < 0.01 µM
TGI (M14 melanoma): 0.408 µM
TGI (HCC-2998 colon): 0.609 µM
TGI (HL-60(TB) leukemia): < 0.01 µM
TGI (LOX IMVI melanoma): 0.395 µM
TGI (HCT-116 colon): 0.106 µM
TGI (A549 NSCLC): 12.4 µM
TGI (SK-MEL-28 melanoma): 7.49 µM
TGI (UACC-257 melanoma): 0.438 µM
TGI (PC-3 prostate): 1.35 µM
TGI (SK-MEL-5 melanoma): 0.0382 µM
TGI (SNB-75 CNS): 1.75 µM
TGI (SN12C renal): 0.326 µM
TGI (CAKI-1 renal): 0.662 µM
TGI (SK-MEL-2 melanoma): 0.837 µM
TGI (NCI-H23 lung): 2.04 µM
TGI (IGROV1 ovarian): 0.796 µM
TGI (DU-145 prostate): 0.103 µM
TGI (HOP-62 NSCLC): 1.16 µM
TGI (SF-539 CNS): 0.0701 µM
TGI (SF-295 CNS): 2.68 µM
TGI (MDA-MB-435): 0.202 µM
TGI (MCF7 breast): 1.56 µM
